The conditions of data set [1]: twenty four hours following a single oral dose; cited from earlier work.
The conditions of data set [2]: average person, drinking water guidance; cited from earlier work.
For data set [3], the system named is antibody of the invention (polyclonal IgG raised against Immunogen II, TCG-BTG). The data set can be described thus: Competitive ELISA for TCG: cross-reactivity and specificity of the antibody. It is filed as binding, sheep. The following applies: for IC50 = standard concentration which produces 50% B/B0: hapten A-HRP conjugate. How it is done:
TCG was coupled to bovine thyroglobulin (Immunogen II, Example 5). The resulting immunogen was administered to adult sheep on a monthly basis to provide target-specific polyclonal antisera. IgG was extracted from the antisera via caprylic acid/ammonium sulphate precipitation of immunoglobulin. Microtitre plates (Thermo Scientific, 468667) were coated with antibody (125 μl) in coating buffer (10 mM Tris pH 8.5) at 37° C. for 2 hours. Antibody was coated at 1.25 μg/ml. The plates were then washed. 50 μl of sample/standard (trichloroethyl glucuronide, Randox LK811; chloral hydrate, Sigma C8383-100 g; trichloroacetic acid, Fisher Scientific T/3000/50; ETG, Randox LK589) was added to the appropriate wells in triplicate, followed by 75 μl of hapten A-HRP conjugate at ¼K and incubated at 25° C. for 1 hour. The plates were then washed and 125 μl of TMB (Randox, 4380-15) was added to each well and left at room temperature for 20 mins in the dark. The reaction was stopped using 125 μl of 0.2M sulphuric acid. The absorbances were read at 450 nm with an ELISA microplate reader (BIO-TEK Instruments, Elx800) and the means calculated. Antibody specificity and sensitivity were then determined.
Competitive ELISA results in the Table 1 below highlight the specificity of the antibody of the invention towards TCG.

The conditions of data set [4]: metabolite of chloral hydrate; cited from earlier work.

≈ marks a conversion by molar mass, not a printed value.

On to `OC(O)C(Cl)(Cl)Cl` [Chloral Hydrate, 2,2,2-trichloroethanediol], for which, in data set [1], the “excreted in the urine as TCG” value is reported as ~28% and the “excreted in the urine as trichloroethanol” value is listed as “approximately 0.7%”. In addition, the “Tolerable Daily Intake (TDI)” value in data set [2] was 0.3 mg/day.

Regarding `CCO[C@@H]1O[C@H](C(=O)O)[C@@H](O)[C@H](O)[C@H]1O` [EtG, ethyl glucuronide], the “% CR = percentage cross-reactivity based on 100% specificity to TCG” value (“% CR = percentage cross-reactivity based” for short) in data set [3] (competitive ELISA) is recorded as <<0.69%. Besides, in data set [3] (competitive ELISA, Table 1), the “cross-reactivity with the antibody of the invention (in words)” value was “does not cross-react”. In addition, the “IC50 = standard concentration which produces 50% B/B0” value in data set [3] (competitive ELISA) was >>2000 ng/ml. Also, the “% B/B0” value is listed as 86.7% in data set [3] (standard 31.25 ng/ml); 83.9% in data set [3] (standard 62.5 ng/ml); 84.8% in data set [3] (standard 125 ng/ml); 82.8% in data set [3] (standard 250 ng/ml); 80.2% in data set [3] (standard 500 ng/ml); 75.6% in data set [3] (standard 1000 ng/ml). In addition, in data set [3] (standard 2000 ng/ml), the “% B/B0” value is listed as 69.6%. Also, the “A450 (absorbance at 450 nm)” value turned out to be 1.183 in data set [3] (standard 31.25 ng/ml); 1.144 in data set [3] (standard 62.5 ng/ml); 1.157 in data set [3] (standard 125 ng/ml); 1.130 in data set [3] (standard 250 ng/ml); 1.094 in data set [3] (standard 500 ng/ml); 1.031 in data set [3] (standard 1000 ng/ml). Also, the “A450 (absorbance at 450 nm)” value in data set [3] (standard 2000 ng/ml) worked out at 0.950.

`O=C(O)[C@H]1O[C@@H](OCC(Cl)(Cl)Cl)[C@H](O)[C@@H](O)[C@@H]1O` [TCG, trichloroethanol glucuronide]: in data set [3] (competitive ELISA), the “% CR = percentage cross-reactivity based” value amounted to 100%. The “IC50 = standard concentration which produces 50% B/B0” value in data set [3] (competitive ELISA) was 13.724 ng/mL (≈ 0.0422 µM). Further, the “% B/B0” value in data set [3] (standard 1.25 ng/ml) is reported as 86.6%; in data set [3] (standard 2.5 ng/ml), 81.0%; in data set [3] (standard 5 ng/ml), 70.0%; in data set [3] (standard 10 ng/ml), 57.5%; in data set [3] (standard 20 ng/ml), 42.3%; in data set [3] (standard 40 ng/ml) it was 30.7%. Also, in data set [3] (standard 80 ng/ml), the “% B/B0” value is 24.6%. For the same compound, the “A450 (absorbance at 450 nm)” value in data set [3] (standard 1.25 ng/ml) is 1.313; in data set [3] (standard 2.5 ng/ml), 1.228; in data set [3] (standard 5 ng/ml), 1.061; in data set [3] (standard 10 ng/ml), 0.872; in data set [3] (standard 20 ng/ml), 0.641; in data set [3] (standard 40 ng/ml) it was 0.465. Further, in data set [3] (standard 80 ng/ml), the “A450 (absorbance at 450 nm)” value came to 0.373.

Regarding `O=C(O)C(Cl)(Cl)Cl` [Trichloroacetic Acid, trichloroacetic acid], the “% CR = percentage cross-reactivity based” value in data set [3] (competitive ELISA) was <<0.69%. In addition, in data set [3] (competitive ELISA), the “IC50 = standard concentration which produces 50% B/B0” value is on record as >>2000 ng/ml. For the same compound, the “% B/B0” value is given as 91.2% in data set [3] (standard 31.25 ng/ml); 92.5% in data set [3] (standard 62.5 ng/ml); 92.4% in data set [3] (standard 125 ng/ml); 87.2% in data set [3] (standard 250 ng/ml); 85.4% in data set [3] (standard 500 ng/ml); 81.8% in data set [3] (standard 1000 ng/ml). Moreover, the “% B/B0” value in data set [3] (standard 2000 ng/ml) is listed as 72.7%. The “A450 (absorbance at 450 nm)” value worked out at 1.372 in data set [3] (standard 31.25 ng/ml); 1.391 in data set [3] (standard 62.5 ng/ml); 1.389 in data set [3] (standard 125 ng/ml); 1.312 in data set [3] (standard 250 ng/ml); 1.284 in data set [3] (standard 500 ng/ml); 1.230 in data set [3] (standard 1000 ng/ml). Further, the “A450 (absorbance at 450 nm)” value in data set [3] (standard 2000 ng/ml) was determined as 1.094. In addition, in data set [4], the half-life entry is given as “approximately 4 days”.
